According to patent US12624057B2, “Bisphosphonate quinolone conjugates and uses thereof” (BIOVINC, LLC, priority 2016, dated 2026):

Test system: S. aureus 6538
Assay: Preventative assay, HA spherules pretreated then inoculated with S. aureus
Format: cell-based, Staphylococcus aureus
Experimental: Preventative ability of BP-ciprofloxacin conjugate to inhibit S. aureus 6538 adherence to HA spherules: Various BP-ciprofloxacin concentrations were introduced to HA powder (spherules) suspended in TSB microbiological medium. Solutions containing conjugate and HA spherules were introduced to wells of 24-well plates. Final concentrations of powder were 10 mg/1 mL, while final concentrations of the conjugate were 0.12-250 mg/L. Suspensions were left for 24 h/37° C./shaking. After 24 h, suspensions were removed from the wells and impulse-centrifuged to precipitate HA powder. Next, supernatant was very gently discarded and a fresh 1 mL of S. aureus of density 10^5 cfu/mL was introduced to the HA spherules. Subsequently, this solution was shaken, absorbance was measured using 580 nm wavelength and left for 24 h/37° C./shaking. After incubation absorbance was measured again and values from 0 hr and 24 hrs were compared to assess reduction of bacterial growth with regard to control sample one (bacterial suspension but no spherules) and control sample two (bacterial suspension+spherules but with no conjugate added). Additionally, solutions were impulse-centrifuged, supernatant was gently discarded, while bacteria-containing HA spherules were culture plated as before and quantitatively assessed. […]

O=C(O)c1cn(C2CC2)c2cc(N3CCNCC3)c(F)cc2c1=O [ciprofloxacin, reference compound]
concentration giving the only significant reduction: 400 µg/mL
